From ChEMBL document CHEMBL4418299, “Compounds useful as csf1 modulators” (2016)

Target: Macrophage colony-stimulating factor 1 receptor (Homo sapiens, UniProt P07333)
Test: Displacement of kinase tracer 236 from recombinant human His-tagged CSF1R cytoplasmic domain (538 to 910 residues) expressed in baculovirus-infected insect cells measured after 5 hrs by TR-FRET based LanthaScreen assay

Macrophage colony-stimulating factor 1 receptor, sequence (P07333 whole entry, the tested form may be a part): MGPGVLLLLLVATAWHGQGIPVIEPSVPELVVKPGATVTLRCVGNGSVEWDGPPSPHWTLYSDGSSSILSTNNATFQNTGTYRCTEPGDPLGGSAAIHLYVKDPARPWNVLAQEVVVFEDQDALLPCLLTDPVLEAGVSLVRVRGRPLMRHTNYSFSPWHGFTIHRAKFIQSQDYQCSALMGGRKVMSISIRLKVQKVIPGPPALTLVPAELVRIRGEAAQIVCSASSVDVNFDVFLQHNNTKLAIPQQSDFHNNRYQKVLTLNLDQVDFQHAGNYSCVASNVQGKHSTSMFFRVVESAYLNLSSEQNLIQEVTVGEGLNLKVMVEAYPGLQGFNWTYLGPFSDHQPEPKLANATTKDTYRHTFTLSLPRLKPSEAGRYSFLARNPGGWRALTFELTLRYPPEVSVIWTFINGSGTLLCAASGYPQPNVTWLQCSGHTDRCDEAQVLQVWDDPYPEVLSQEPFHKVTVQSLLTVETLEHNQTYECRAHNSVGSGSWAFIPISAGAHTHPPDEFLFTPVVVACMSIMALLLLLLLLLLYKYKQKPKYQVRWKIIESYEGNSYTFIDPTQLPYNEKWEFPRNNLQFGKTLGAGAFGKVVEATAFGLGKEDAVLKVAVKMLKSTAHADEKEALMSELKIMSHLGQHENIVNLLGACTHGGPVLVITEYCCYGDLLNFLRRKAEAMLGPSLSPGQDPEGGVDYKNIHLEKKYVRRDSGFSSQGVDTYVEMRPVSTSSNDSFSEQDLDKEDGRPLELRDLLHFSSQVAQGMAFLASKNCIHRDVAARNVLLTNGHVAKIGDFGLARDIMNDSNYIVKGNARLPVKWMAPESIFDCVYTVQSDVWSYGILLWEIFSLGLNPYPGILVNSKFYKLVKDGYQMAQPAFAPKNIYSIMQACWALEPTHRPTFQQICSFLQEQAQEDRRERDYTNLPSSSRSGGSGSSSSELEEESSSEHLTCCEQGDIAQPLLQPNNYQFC

For `Nc1ncnc2c3c(n(-c4ccc(NC(=O)Cc5cnn(-c6ccccc6)c5)cc4)c12)CCC3`, the IC50 was 0.01 to 0.2 µM.

`Nc1ncnc2c3c(n(-c4ccc(NC(=O)C(F)c5ccccc5)cc4)c12)CCC3` (stereo unspecified) gave an IC50 of over 0.2 µM.

`Cc1ccc(F)c(CC(=O)Nc2ccc(-n3c4c(c5ncnc(N)c53)COC4)cc2F)c1` showed an IC50 of over 0.2 µM.

In the case of `COc1cc(-n2c3c(c4ncnc(N)c42)CCC3)ccc1NC(=O)Cc1ccc(C(F)(F)F)nc1`, the IC50 is reported as under 0.01 µM.

Work on `COc1cc(-n2c3c(c4ncnc(N)c42)CCC3)ccc1CC(=O)N1CCOc2ccccc21` yielded an IC50 of under 0.01 µM.

Compound `COc1ccc(CC(=O)Nc2ccc(-n3c4c(c5ncnc(N)c53)CCC4)cc2OC)nc1` has an IC50 of 0.01 to 0.2 µM.

Work on `COc1cc(-n2c3c(c4ncnc(N)c42)COC3)ccc1NC(=O)Cc1nccc(C(F)(F)F)n1` yielded an IC50 of over 0.2 µM.

Compound `COc1cc(-n2c3c(c4ncnc(N)c42)CCC3)ccc1NC(=O)Cc1nccc(C(F)(F)F)n1` has an IC50 of 0.01 to 0.2 µM.

With `Nc1ncnc2c3c(n(-c4ccc(NC(=O)Cc5ccnc(C(F)(F)F)c5)cc4)c12)COC3` the IC50 was 0.01 to 0.2 µM.

`COc1cc(-n2c3c(c4ncnc(N)c42)CCC3)ccc1NC(=O)Cc1ccnc(C(F)(F)F)n1` was tested, and the IC50 was 0.01 to 0.2 µM.

For `COc1cc(-n2c3c(c4ncnc(N)c42)COC3)ccc1NC(=O)CN1C(=O)COc2ccccc21`, the IC50 was over 0.2 µM.

`COc1cc(-n2c3c(c4ncnc(N)c42)COC3)ccc1NC(=O)Cc1cc(C)ccc1F` showed an IC50 of 0.01 to 0.2 µM.

`COc1ccc(CC(=O)Nc2ccc(-n3c4c(c5ncnc(N)c53)COC4)cc2)c(F)c1` gave an IC50 of 0.01 to 0.2 µM.

Work on `Nc1ncnc2c3c(n(-c4ccc(CC(=O)Nc5cnc(C(F)(F)F)nc5)cc4)c12)CCC3` yielded an IC50 of 0.01 to 0.2 µM.

`Nc1ncnc2c3c(n(-c4ccc(NC(=O)Cc5ccc(Cl)c(C(F)(F)F)c5)cc4)c12)CCC3` was tested, and the IC50 was 0.014 µM.

Work on `COc1cc(-n2c3c(c4ncnc(N)c42)COC3)ccc1NC(=O)Cc1ccc(C(F)(F)F)nc1` yielded an IC50 of 0.01 to 0.2 µM.

`Nc1ncnc2c3c(n(-c4ccc(NC(=O)Cc5coc(-c6ccccc6)n5)cc4)c12)CCC3` showed an IC50 of 0.01 to 0.2 µM.

For `COc1cc(CC(=O)Nc2ccc(-n3c4c(c5ncnc(N)c53)CCC4)cc2OC)ccc1C`, the IC50 was under 0.01 µM.

With `Nc1ncnc2c3c(n(-c4ccc(NC(=O)Cc5cc(C(F)(F)F)ccc5Cl)cc4)c12)CCC3` the IC50 was 0.01 to 0.2 µM.

For `COc1cc(-n2c3c(c4ncnc(N)c42)CCC3)ccc1NC(=O)Cc1ccc(Cl)c(C(F)(F)F)c1`, the IC50 was 0.01 to 0.2 µM.

In the case of `COc1cc(-n2c3c(c4ncnc(N)c42)COC3)ccc1NC(=O)Cc1ccccc1`, the IC50 is reported as under 0.01 µM.

Work on `Nc1ncnc2c3c(n(-c4ccc(CC(=O)NCc5ccccc5)cc4)c12)CCC3` yielded an IC50 of 0.01 to 0.2 µM.

For `CN1CCN(CC(=O)Nc2ccc(-n3c4c(c5ncnc(N)c53)CCC4)cc2)CC1`, the IC50 was over 0.2 µM.

With `Nc1ncnc2c3c(n(-c4ccc(NC(=O)Cc5ccccc5)nc4)c12)CCC3` the IC50 was over 0.2 µM.

Compound `COc1ccccc1CC(=O)Nc1ccc(-n2c3c(c4ncnc(N)c42)CCC3)cc1` has an IC50 of under 0.01 µM.

With `COc1cc(-n2c3c(c4ncnc(N)c42)COC3)ccc1NC(=O)Cc1cnc2c(ccn2C)c1` the IC50 was 0.032 µM.

`COc1cc(-n2c3c(c4ncnc(N)c42)CCC3)ccc1CC(=O)Nc1ccccc1` gave an IC50 of 0.01 to 0.2 µM.

`Nc1ncnc2c3c(n(-c4ccc(CC(=O)Nc5cccnc5)cc4)c12)CCC3` showed an IC50 of over 0.2 µM.

For `COc1ccc(CC(=O)Nc2ccc(-n3c4c(c5ncnc(N)c53)COC4)cc2F)c(F)c1`, the IC50 was over 0.2 µM.

`Nc1ncnc2c3c(n(-c4ccc(NC(=O)Cc5ccc(C(F)(F)F)nc5)cc4)c12)COC3` gave an IC50 of 0.01 to 0.2 µM.

For `Cc1ccc(CC(=O)Nc2ccc(-n3c4c(c5ncnc(N)c53)COC4)cc2)cc1F`, the IC50 was 0.01 to 0.2 µM.

`COc1cc(-n2c3c(c4ncnc(N)c42)CCC3)ccc1NC(=O)Cc1ccnc(C(F)(F)F)c1` gave an IC50 of under 0.01 µM.

With `Nc1ncnc2c3c(n(-c4ccc(NC(=O)Cc5ccc(O)cc5)cc4)c12)CCC3` the IC50 was 0.029 µM.

`COc1cc(-n2c3c(c4ncnc(N)c42)CCC3)ccc1NC(=O)CN1C(=O)COc2ccccc21` gave an IC50 of 0.01 to 0.2 µM.

With `COc1cc(-n2c3c(c4ncnc(N)c42)CCC3)ccc1NC(=O)Cc1ccccn1` the IC50 was under 0.01 µM.

`COc1cc(-n2c3c(c4ncnc(N)c42)CCC3)ccc1NC(=O)Cc1cnccn1` gave an IC50 of over 0.2 µM.

Work on `Cn1cc(CCC(=O)Nc2ccc(-n3c4c(c5ncnc(N)c53)CCC4)cc2)c2ccccc21` yielded an IC50 of 0.01 to 0.2 µM.

Compound `COc1ccc(NC(=O)Cc2ccc(-n3c4c(c5ncnc(N)c53)CCC4)cc2)nn1` has an IC50 of over 0.2 µM.

Work on `Cn1ccc2cc(CC(=O)Nc3ccc(-n4c5c(c6ncnc(N)c64)CCC5)cc3)cnc21` yielded an IC50 of under 0.01 µM.

For `COc1cc(-n2c3c(c4ncnc(N)c42)CCC3)ccc1CC(=O)Nc1cc(C)ccc1F`, the IC50 was under 0.01 µM.

Compound `NC(=O)c1ccc(CC(=O)Nc2ccc(-n3c4c(c5ncnc(N)c53)CCC4)cc2)cc1C(F)(F)F` has an IC50 of 0.01 to 0.2 µM.

`COc1cccc(CC(=O)Nc2ccc(-n3c4c(c5ncnc(N)c53)CCC4)cc2OC)n1` showed an IC50 of 0.01 to 0.2 µM.

With `CN(C)c1cc(CC(=O)Nc2ccc(-n3c4c(c5ncnc(N)c53)CCC4)cc2)ccc1C(F)(F)F` the IC50 was 0.01 to 0.2 µM.

In the case of `Nc1ncnc2c3c(n(-c4ccc(NC(=O)CCCN5CCOCC5)cc4)c12)CCC3`, the IC50 is reported as 0.01 to 0.2 µM.

`COc1cc(-n2c3c(c4ncnc(N)c42)COC3)ccc1NC(=O)CN1CCOc2ccccc21` showed an IC50 of over 0.2 µM.

`COc1cc(-n2c3c(c4ncnc(N)c42)CCC3)ccc1CC(=O)Nc1ccc(C(F)(F)F)cn1` showed an IC50 of under 0.01 µM.
